Experimental data as given in the NIST ThermoML archive (doi:10.1021/je101146f).
± gives the expanded uncertainty stated by the source.

Assays:
[1] = Ring tensiometer
[2] = xn = mol fraction of the nth substance listed; settings: Ring tensiometer

Work on `CC#N` [acetonitrile] yielded a surface tension liquid-gas ([1]; 293.15 K) of 28.95 ± 0.45 mN/m, a surface tension liquid-gas ([1]; 298.15 K) of 28.37 ± 0.45 mN/m and a surface tension liquid-gas ([1]; 303.13 K) of 27.66 ± 0.44 mN/m. For the same molecule, the surface tension liquid-gas ([1]; 308.15 K) was 27.03 ± 0.43 mN/m and the surface tension liquid-gas ([1]; 313.15 K) was 26.43 ± 0.43 mN/m.
With `CCn1cc[n+](C)c1.O=S(=O)([N-]S(=O)(=O)C(F)(F)F)C(F)(F)F` + CC#N the surface tension liquid-gas ([2]; 293.15 K, x1 = 0.0533) was 30.48 ± 0.47 mN/m, the surface tension liquid-gas ([2]; 293.15 K, x1 = 0.1886) was 32.72 ± 0.48 mN/m and the surface tension liquid-gas ([2]; 293.15 K, x1 = 0.337) was 34.02 ± 0.49 mN/m. The surface tension liquid-gas ([2]; 293.15 K, x1 = 0.4724) was 34.77 ± 0.49 mN/m, the surface tension liquid-gas ([2]; 293.15 K, x1 = 0.652) was 35.38 ± 0.49 mN/m and the surface tension liquid-gas ([2]; 293.15 K, x1 = 0.8245) was 35.83 ± 0.5 mN/m. It also gave a surface tension liquid-gas ([2]; 293.15 K, x1 = 0.924) of 35.98 ± 0.5 mN/m, a surface tension liquid-gas ([2]; 293.15 K, x1 = 1) of 36.14 ± 0.5 mN/m and a surface tension liquid-gas ([2]; 298.15 K, x1 = 0.0533) of 29.8 ± 0.46 mN/m. The surface tension liquid-gas ([2]; 298.15 K, x1 = 0.1886) was 32.1 ± 0.48 mN/m, the surface tension liquid-gas ([2]; 298.15 K, x1 = 0.337) was 33.55 ± 0.49 mN/m and the surface tension liquid-gas ([2]; 298.15 K, x1 = 0.4724) was 34.42 ± 0.49 mN/m. The surface tension liquid-gas ([2]; 298.15 K, x1 = 0.652) was 35.11 ± 0.49 mN/m, the surface tension liquid-gas ([2]; 298.15 K, x1 = 0.8245) was 35.6 ± 0.49 mN/m and the surface tension liquid-gas ([2]; 298.15 K, x1 = 0.924) was 35.76 ± 0.49 mN/m. For the same molecule, the surface tension liquid-gas ([2]; 298.15 K, x1 = 1) was 35.9 ± 0.5 mN/m, the surface tension liquid-gas ([2]; 303.13 K, x1 = 0.0533) was 29.26 ± 0.45 mN/m and the surface tension liquid-gas ([2]; 303.13 K, x1 = 0.1886) was 31.63 ± 0.47 mN/m. It also gave a surface tension liquid-gas ([2]; 303.13 K, x1 = 0.337) of 33.15 ± 0.48 mN/m, a surface tension liquid-gas ([2]; 303.13 K, x1 = 0.4724) of 33.99 ± 0.49 mN/m and a surface tension liquid-gas ([2]; 303.13 K, x1 = 0.652) of 34.8 ± 0.49 mN/m. It also gave a surface tension liquid-gas ([2]; 303.13 K, x1 = 0.8245) of 35.29 ± 0.49 mN/m, a surface tension liquid-gas ([2]; 303.13 K, x1 = 0.924) of 35.5 ± 0.49 mN/m and a surface tension liquid-gas ([2]; 303.13 K, x1 = 1) of 35.56 ± 0.49 mN/m. For the same molecule, the surface tension liquid-gas ([2]; 308.15 K, x1 = 0.0533) was 28.65 ± 0.45 mN/m, the surface tension liquid-gas ([2]; 308.15 K, x1 = 0.1886) was 31.16 ± 0.47 mN/m and the surface tension liquid-gas ([2]; 308.15 K, x1 = 0.337) was 32.78 ± 0.48 mN/m. It also gave a surface tension liquid-gas ([2]; 308.15 K, x1 = 0.4724) of 33.61 ± 0.48 mN/m, a surface tension liquid-gas ([2]; 308.15 K, x1 = 0.652) of 34.49 ± 0.49 mN/m and a surface tension liquid-gas ([2]; 308.15 K, x1 = 0.8245) of 34.99 ± 0.49 mN/m. For the same molecule, the surface tension liquid-gas ([2]; 308.15 K, x1 = 0.924) was 35.22 ± 0.49 mN/m, the surface tension liquid-gas ([2]; 308.15 K, x1 = 1) was 35.35 ± 0.49 mN/m and the surface tension liquid-gas ([2]; 313.15 K, x1 = 0.0533) was 28.04 ± 0.44 mN/m. It also gave a surface tension liquid-gas ([2]; 313.15 K, x1 = 0.1886) of 30.69 ± 0.46 mN/m, a surface tension liquid-gas ([2]; 313.15 K, x1 = 0.337) of 32.36 ± 0.47 mN/m and a surface tension liquid-gas ([2]; 313.15 K, x1 = 0.4724) of 33.28 ± 0.48 mN/m. The surface tension liquid-gas ([2]; 313.15 K, x1 = 0.652) was 34.2 ± 0.48 mN/m, the surface tension liquid-gas ([2]; 313.15 K, x1 = 0.8245) was 34.75 ± 0.48 mN/m and the surface tension liquid-gas ([2]; 313.15 K, x1 = 0.924) was 35 ± 0.49 mN/m. The surface tension liquid-gas ([2]; 313.15 K, x1 = 1) was 35.1 ± 0.49 mN/m.
Work on `C1CCOC1` [tetrahydrofuran] yielded a surface tension liquid-gas ([1]; 293.15 K) of 27.31 ± 0.43 mN/m, a surface tension liquid-gas ([1]; 298.15 K) of 26.68 ± 0.43 mN/m and a surface tension liquid-gas ([1]; 303.13 K) of 26.04 ± 0.42 mN/m. It also gave a surface tension liquid-gas ([1]; 308.15 K) of 25.38 ± 0.42 mN/m.
`CCn1cc[n+](C)c1.O=S(=O)([N-]S(=O)(=O)C(F)(F)F)C(F)(F)F` showed a surface tension liquid-gas ([1]; 293.15 K) of 36.14 ± 0.5 mN/m, a surface tension liquid-gas ([1]; 298.15 K) of 35.9 ± 0.5 mN/m and a surface tension liquid-gas ([1]; 303.13 K) of 35.56 ± 0.49 mN/m. It also gave a surface tension liquid-gas ([1]; 308.15 K) of 35.35 ± 0.49 mN/m and a surface tension liquid-gas ([1]; 313.15 K) of 35.1 ± 0.49 mN/m.
Work on `C1CCOC1` [tetrahydrofuran] + CCn1cc[n+](C)c1.O=S(=O)([N-]S(=O)(=O)C(F)(F)F)C(F)(F)F yielded a surface tension liquid-gas ([2]; 293.15 K, x2 = 0) of 27.31 ± 0.43 mN/m, a surface tension liquid-gas ([2]; 298.15 K, x2 = 0) of 26.68 ± 0.43 mN/m and a surface tension liquid-gas ([2]; 303.13 K, x2 = 0) of 26.04 ± 0.42 mN/m. The surface tension liquid-gas ([2]; 308.15 K, x2 = 0) was 25.38 ± 0.42 mN/m.
In the case of `CC#N` [acetonitrile] + CCn1cc[n+](C)c1.O=S(=O)([N-]S(=O)(=O)C(F)(F)F)C(F)(F)F, the surface tension liquid-gas ([2]; 293.15 K, x2 = 0) is reported as 28.95 ± 0.45 mN/m, the surface tension liquid-gas ([2]; 298.15 K, x2 = 0) is reported as 28.37 ± 0.45 mN/m and the surface tension liquid-gas ([2]; 303.13 K, x2 = 0) is reported as 27.66 ± 0.44 mN/m. It also gave a surface tension liquid-gas ([2]; 308.15 K, x2 = 0) of 27.03 ± 0.43 mN/m and a surface tension liquid-gas ([2]; 313.15 K, x2 = 0) of 26.43 ± 0.43 mN/m.
For `CCn1cc[n+](C)c1.O=S(=O)([N-]S(=O)(=O)C(F)(F)F)C(F)(F)F` + C1CCOC1, the surface tension liquid-gas ([2]; 293.15 K, x1 = 0.1037) was 28.72 ± 0.45 mN/m, the surface tension liquid-gas ([2]; 293.15 K, x1 = 0.2024) was 29.94 ± 0.45 mN/m and the surface tension liquid-gas ([2]; 293.15 K, x1 = 0.3255) was 31.05 ± 0.46 mN/m. The surface tension liquid-gas ([2]; 293.15 K, x1 = 0.3841) was 31.62 ± 0.46 mN/m, the surface tension liquid-gas ([2]; 293.15 K, x1 = 0.4425) was 32.12 ± 0.47 mN/m and the surface tension liquid-gas ([2]; 293.15 K, x1 = 0.5469) was 32.98 ± 0.47 mN/m. It also gave a surface tension liquid-gas ([2]; 293.15 K, x1 = 0.6863) of 34.07 ± 0.48 mN/m, a surface tension liquid-gas ([2]; 293.15 K, x1 = 0.7697) of 34.55 ± 0.48 mN/m and a surface tension liquid-gas ([2]; 293.15 K, x1 = 0.9177) of 35.65 ± 0.49 mN/m. The surface tension liquid-gas ([2]; 293.15 K, x1 = 1) was 36.14 ± 0.5 mN/m, the surface tension liquid-gas ([2]; 298.15 K, x1 = 0.1037) was 28.1 ± 0.44 mN/m and the surface tension liquid-gas ([2]; 298.15 K, x1 = 0.2024) was 29.42 ± 0.45 mN/m. It also gave a surface tension liquid-gas ([2]; 298.15 K, x1 = 0.3255) of 30.62 ± 0.46 mN/m, a surface tension liquid-gas ([2]; 298.15 K, x1 = 0.3841) of 31.18 ± 0.46 mN/m and a surface tension liquid-gas ([2]; 298.15 K, x1 = 0.4425) of 31.76 ± 0.46 mN/m. It also gave a surface tension liquid-gas ([2]; 298.15 K, x1 = 0.5469) of 32.63 ± 0.47 mN/m, a surface tension liquid-gas ([2]; 298.15 K, x1 = 0.6863) of 33.81 ± 0.48 mN/m and a surface tension liquid-gas ([2]; 298.15 K, x1 = 0.7697) of 34.38 ± 0.48 mN/m. It also gave a surface tension liquid-gas ([2]; 298.15 K, x1 = 0.9177) of 35.46 ± 0.49 mN/m, a surface tension liquid-gas ([2]; 298.15 K, x1 = 1) of 35.9 ± 0.5 mN/m and a surface tension liquid-gas ([2]; 303.13 K, x1 = 0.1037) of 27.52 ± 0.43 mN/m. The surface tension liquid-gas ([2]; 303.13 K, x1 = 0.2024) was 28.84 ± 0.44 mN/m, the surface tension liquid-gas ([2]; 303.13 K, x1 = 0.3255) was 30.18 ± 0.45 mN/m and the surface tension liquid-gas ([2]; 303.13 K, x1 = 0.3841) was 30.82 ± 0.46 mN/m. It also gave a surface tension liquid-gas ([2]; 303.13 K, x1 = 0.4425) of 31.41 ± 0.46 mN/m, a surface tension liquid-gas ([2]; 303.13 K, x1 = 0.5469) of 32.39 ± 0.47 mN/m and a surface tension liquid-gas ([2]; 303.13 K, x1 = 0.6863) of 33.52 ± 0.48 mN/m. It also gave a surface tension liquid-gas ([2]; 303.13 K, x1 = 0.7697) of 34.15 ± 0.48 mN/m, a surface tension liquid-gas ([2]; 303.13 K, x1 = 0.9177) of 35.22 ± 0.49 mN/m and a surface tension liquid-gas ([2]; 303.13 K, x1 = 1) of 35.56 ± 0.49 mN/m. It also gave a surface tension liquid-gas ([2]; 308.15 K, x1 = 0.1037) of 26.88 ± 0.43 mN/m, a surface tension liquid-gas ([2]; 308.15 K, x1 = 0.2024) of 28.33 ± 0.44 mN/m and a surface tension liquid-gas ([2]; 308.15 K, x1 = 0.3255) of 29.84 ± 0.45 mN/m. For the same molecule, the surface tension liquid-gas ([2]; 308.15 K, x1 = 0.3841) was 30.52 ± 0.45 mN/m, the surface tension liquid-gas ([2]; 308.15 K, x1 = 0.4425) was 31.07 ± 0.46 mN/m and the surface tension liquid-gas ([2]; 308.15 K, x1 = 0.5469) was 32.08 ± 0.46 mN/m. For the same molecule, the surface tension liquid-gas ([2]; 308.15 K, x1 = 0.6863) was 33.26 ± 0.47 mN/m, the surface tension liquid-gas ([2]; 308.15 K, x1 = 0.7697) was 33.92 ± 0.48 mN/m and the surface tension liquid-gas ([2]; 308.15 K, x1 = 0.9177) was 34.98 ± 0.49 mN/m. The surface tension liquid-gas ([2]; 308.15 K, x1 = 1) was 35.35 ± 0.49 mN/m.
